According to PubChem BioAssay AID1205 (EPA DSSTox, 2008):
Activity calls are given as the source filed them.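 Rule for the calls: active = tumour findings in long-term animal cancer tests in more than one sex, species or organ; inactive = no tumour finding and more than one negative test.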

Assay: DSSTox (CPDBAS) Carcinogenic Potency Database Summary MultiCellCall Results
Conditions: animal carcinogenicity bioassays, multi-cell call summary
In short: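 Summary call drawn from chronic long-term cancer bioassays in rats, mice, hamsters, dogs and nonhuman primates, using the most positive result per sex-species. Score: multispecies=50, multisex=30, multisite=20, summed for combinations.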
With `CC(C)OC(=O)Nc1ccccc1` the outcome was “inactive; multisex inactive; multispecies inactive”. In the case of `CCCCC(C)(O)C/C=C/[C@H]1[C@H](O)CC(=O)[C@@H]1CCCCCCC(=O)OC` (stereo partly specified), the outcome is reported as “inactive; multisex inactive; multispecies inactive”. In the case of `O=C1C2(Cl)C3(Cl)C4(Cl)C(Cl)(Cl)C5(Cl)C3(Cl)C1(Cl)C5(Cl)C24Cl` (stereo unspecified), the outcome is reported as “active; multisex active; multispecies active”. In the case of `Oc1c(Cl)cc(Cl)cc1Sc1cc(Cl)cc(Cl)c1O`, the outcome is reported as “inactive; multisex inactive”. In the case of `C=CCc1ccc(O)c(OC)c1`, the outcome is reported as “inactive; multisex inactive; multispecies inactive”. For `N#CN=C(N)N`, the outcome was “inactive; multisex inactive”. With `Nc1ccc(-c2ccc(N)c(N)c2)cc1N` the outcome was “active; multisite active; multispecies active”. For `S=C(S)NCCNC(=S)S`, the outcome was “inactive; multisex inactive”. With `CC(=O)c1ccc(S(=O)(=O)NC(=O)NC2CCCCC2)cc1` the outcome was “inactive; multisex inactive; multispecies inactive”. With `O=NN1C[C@H](O)C[C@H]1C(=O)O` the outcome was “inactive; multisex inactive”. With `CCOP(=S)(OCC)Oc1cc(C)nc(C(C)C)n1` the outcome was “inactive; multisex inactive; multispecies inactive”. In the case of `OCCN(CCO)CCO`, the outcome is reported as “active; multisex active”. For `CCOC(=O)[C@]1(c2ccccc2)CCC=C[C@H]1N(C)C`, the outcome was “inactive; multisex inactive; multispecies inactive”. For `O=C/C=C/c1ccccc1`, the outcome was “inactive; multisex inactive; multispecies inactive”. In the case of `NC(=O)Cc1cccc2ccccc12`, the outcome is reported as “inactive; multisex inactive”. For `O=C1CCCCC1`, the outcome was “inactive; multisex inactive; multispecies inactive”. For `COP(=O)(OC)OC=C(Cl)Cl`, the outcome was “active; multisite active; multisex active; multispecies active”. With `CCN(C)N=O` the outcome was “active; multisite active”. For `CC(=O)OC[C@H]1O[C@H](O[C@]2(COC(C)=O)O[C@H](COC(=O)C(C)C)[C@@H](OC(=O)C(C)C)[C@@H]2OC(=O)C(C)C)[C@H](OC(=O)C(C)C)[C@@H](OC(=O)C(C)C)[C@@H]1OC(=O)C(C)C`, the outcome was “inactive; multisex inactive; multispecies inactive”. With `CNCc1ccc(CSCCNC(=NCC(O)c2ccc(O)cc2)NS(C)(=O)=O)o1` (stereo unspecified) the outcome was “active; multisex active”. For `CC(=O)NCc1nc(-c2ccc([N+](=O)[O-])o2)no1`, the outcome was “active; multisite active”. For `CCCCCCc1ccc(O)cc1O`, the outcome was “inactive; multisex inactive; multispecies inactive”. For `FC(F)OC(Cl)C(F)(F)F` (stereo unspecified), the outcome was “inactive; multisex inactive”. For `NNc1nc(-c2ccc(N)cc2)cs1`, the outcome was “active; multisite active; multispecies active”. In the case of `NNc1nc(-c2ccc([N+](=O)[O-])cc2)cs1`, the outcome is reported as “active; multisite active; multispecies active”. With `S=P(N1CC1)(N1CC1)N1CC1` the outcome was “active; multisite active; multisex active; multispecies active”. For `Cc1ccc2ncccc2c1`, the outcome was “inactive; multisex inactive”. With `NC(=O)/C(=C\c1ccc([N+](=O)[O-])o1)c1ccco1` the outcome was “active; multisite active; multisex active; multispecies active”. For `NC(=S)NNC(N)=S`, the outcome was “inactive; multisex inactive; multispecies inactive”. For `CCCCN(CC)C(=O)SCCC`, the outcome was “inactive; multisex inactive”. With `Nc1ccccc1C(=O)OC/C=C/c1ccccc1` the outcome was “active; multisite active; multisex active; multispecies active”. In the case of `O=[N+]([O-])c1ccccc1`, the outcome is reported as “active; multisite active; multisex active; multispecies active”. In the case of `O=C(O)c1nn(Cc2ccc(Cl)cc2Cl)c2ccccc12`, the outcome is reported as “inactive; multisex inactive”. For `C=C1C/C(=C/C)C(=O)O[C@@H]2CCN3CC=C(COC(=O)[C@@]1(O)CO)[C@H]23`, the outcome was “active; multisite active; multisex active; multispecies active”. In the case of `CCC1(c2ccccc2)C(=O)NC(=O)NC1=O`, the outcome is reported as “active; multisex active”. With `CCCCNNCCCC` the outcome was “active; multisite active; multisex active”. For `CC(=O)O[C@H]1CC[C@@]2(C)C(=CC[C@@H]3[C@@H]2CC[C@]2(C)C(=O)CC[C@@H]32)C1`, the outcome was “active; multisex active”. For `Nc1ccc(N=Nc2ccc(N)cc2)cc1`, the outcome was “inactive; multisex inactive”. For `CN1C(=O)C(O)N=C(c2ccccc2)c2cc(Cl)ccc21` (stereo unspecified), the outcome was “inactive; multisex inactive”. With `Nc1ccc2oc3ccccc3c2c1` the outcome was “active; multisite active; multisex active”. For `NC(=O)N(CCO)N=O`, the outcome was “active; multisite active; multisex active; multispecies active”. For `c1ccccc1`, the outcome was “active; multisite active; multisex active; multispecies active”. With `O=NN1CCC(=O)NC1=O` the outcome was “active; multisex active”. With `N[C@@H](CC(=O)O)C(=O)O` the outcome was “inactive; multisex inactive”. In the case of `O=[N+]([O-])c1ccc(-c2cnc3ccccn23)o1`, the outcome is reported as “active; multisite active; multisex active; multispecies active”. For `OCN(CO)c1nc(N(CO)CO)nc(N(CO)CO)n1`, the outcome was “active; multisite active”. In the case of `C=COC(N)=O`, the outcome is reported as “active; multisite active; multisex active”. In the case of `CCCCCCCCCCCC[N+](C)(C)[O-]`, the outcome is reported as “inactive; multisex inactive”. In the case of `CCN(CC)c1cc2oc3cc(=[N+](CC)CC)c(C)cc-3c(-c3ccc(S(=O)(=O)O)cc3S(=O)(=O)[O-])c2cc1C`, the outcome is reported as “inactive; multisex inactive”. For `Cc1cccc2cccnc12`, the outcome was “inactive; multisex inactive”. In the case of `O=c1c(O)c(-c2ccc(O)cc2)oc2cc(O)cc(O)c12`, the outcome is reported as “inactive; multisex inactive”. With `Cc1nc(N)cc2[nH]c3ccccc3c12` the outcome was “active; multisite active; multisex active; multispecies active”. For `O=NN1CCN(N=O)CC1`, the outcome was “active; multisex active”. In the case of `O=NN1CCCC1`, the outcome is reported as “active; multisite active; multisex active; multispecies active”. With `CN=[N+](C)[O-]` the outcome was “active; multisite active”. In the case of `Cn1cc[nH]c1=S`, the outcome is reported as “active; multisex active”. For `CCO`, the outcome was “active; multisite active”. In the case of `NC(=S)Nc1cccc2ccccc12`, the outcome is reported as “inactive; multisex inactive”. With `OCCO` the outcome was “inactive; multisex inactive”. For `[O-]/[N+](=N\O)c1ccccc1`, the outcome was “active; multisite active; multisex active; multispecies active”. With `CC(C)NCC(O)COc1cccc2ccccc12` (stereo unspecified) the outcome was “inactive; multisex inactive; multispecies inactive”. With `CCN(CC)CC#CC(C)(C)OC(=O)C(O)(c1ccccc1)C1CCCCC1` (stereo unspecified) the outcome was “inactive; multisex inactive; multispecies inactive”. With `CN(C)CCN(C)N=O` the outcome was “active; multisite active; multisex active”. With `CC=O` the outcome was “active; multisite active; multisex active; multispecies active”. For `c1ccc2[nH]c(-c3cscn3)nc2c1`, the outcome was “inactive; multisex inactive; multispecies inactive”. With `O=C(Nc1ccc2c(c1)Cc1ccccc1-2)C(F)(F)F` the outcome was “active; multisite active”. With `CC(=O)Oc1ccccc1C(=O)O` the outcome was “inactive; multisex inactive; multispecies inactive”. For `CN1CCCC1=O`, the outcome was “active; multisex active”. In the case of `C=CC=O`, the outcome is reported as “inactive; multisex inactive; multispecies inactive”. In the case of `c1ccc(-c2ccccc2)cc1`, the outcome is reported as “inactive; multisex inactive”. For `CC(COc1ccc(C(C)(C)C)cc1)OS(=O)OCCCl` (stereo unspecified), the outcome was “active; multispecies active”. In the case of `Cc1ccc(C)c(N)c1`, the outcome is reported as “active; multisite active; multisex active; multispecies active”. In the case of `C=CF`, the outcome is reported as “active; multisite active; multisex active; multispecies active”. In the case of `S=c1nc[nH]c2nc[nH]c12`, the outcome is reported as “inactive; multisex inactive”. In the case of `CN(C)[C@@H]1C(=O)C(C(N)=O)=C(O)[C@@]2(O)C(=O)C3=C(O)c4c(O)cccc4[C@@](C)(O)[C@H]3[C@H](O)[C@@H]12`, the outcome is reported as “inactive; multisex inactive; multispecies inactive”. In the case of `O.O.O.O.O.O.O.O=S(=O)([O-])[O-].[Co+2]`, the outcome is reported as “active; multisite active; multisex active; multispecies active”. With `Cc1cccc2ccccc12` the outcome was “inactive; multisex inactive”. In the case of `Cn1cc(C(=O)[C@@H]2CCc3nc[nH]c3C2)c2ccccc21`, the outcome is reported as “inactive; multisex inactive; multispecies inactive”. With `CCOP(=S)(OCC)Oc1ccc2c(C)c(Cl)c(=O)oc2c1` the outcome was “inactive; multisex inactive; multispecies inactive”. In the case of `NC(=O)c1ccccc1C(N)=O`, the outcome is reported as “inactive; multisex inactive; multispecies inactive”. With `COc1ccc2c3c1O[C@H]1[C@@H](O)C=C[C@H]4[C@@H](C2)N(C)CC[C@@]341` the outcome was “inactive; multisex inactive; multispecies inactive”. In the case of `C=CC#N`, the outcome is reported as “active; multisite active; multisex active”. With `Nc1ccc(Cl)c(N)c1` the outcome was “active; multisite active; multisex active; multispecies active”. In the case of `O=NN1CCCCCC1`, the outcome is reported as “active; multisite active; multisex active”. In the case of `C1N2CN3CN1CN(C2)C3`, the outcome is reported as “inactive; multisex inactive; multispecies inactive”. With `Nc1cccc2c(N)cccc12` the outcome was “active; multisite active; multisex active; multispecies active”. For `ClC(Cl)=C(c1ccc(Cl)cc1)c1ccc(Cl)cc1`, the outcome was “active; multisex active; multispecies active”. In the case of `CC(C)C(C(=O)OC(C#N)c1cccc(Oc2ccccc2)c1)c1ccc(Cl)cc1` (stereo unspecified), the outcome is reported as “inactive; multisex inactive; multispecies inactive”. In the case of `OC[C@H]1O[C@@H]2O[C@H]3[C@H](O)[C@@H](O)[C@@H](O[C@H]4[C@H](O)[C@@H](O)[C@@H](O[C@H]5[C@H](O)[C@@H](O)[C@@H](O[C@H]6[C@H](O)[C@@H](O)[C@@H](O[C@H]7[C@H](O)[C@@H](O)[C@@H](O[C@H]8[C@H](O)[C@@H](O)[C@@H](O[C@H]1[C@H](O)[C@H]2O)O[C@@H]8CO)O[C@@H]7CO)O[C@@H]6CO)O[C@@H]5CO)O[C@@H]4CO)O[C@@H]3CO`, the outcome is reported as “inactive; multisex inactive; multispecies inactive”. With `CCOc1ccc2c(c1)C(C)=CC(C)(C)N2` the outcome was “inactive; multisex inactive”. With `O=c1ccc(=O)[nH][nH]1` the outcome was “inactive; multisex inactive; multispecies inactive”. In the case of `CCN(Cc1cccc(S(=O)(=O)O)c1)c1ccc(C(=C2C=CC(=[N+](CC)Cc3cccc(S(=O)(=O)[O-])c3)C=C2)c2ccccc2)cc1`, the outcome is reported as “active; multisite active; multisex active”. With `c1ccc2n[nH]nc2c1` the outcome was “inactive; multisex inactive; multispecies inactive”. With `O=NN(CCO)C(=O)NCCCl` the outcome was “active; multisite active; multisex active”. In the case of `FC(F)(Cl)C(F)(Cl)Cl`, the outcome is reported as “inactive; multisex inactive”. For `C=CCN(CC=C)N=O`, the outcome was “active; multisex active; multispecies active”.
